{"source": "patent US9649305B2", "about": "“PFKFB3 inhibitor and methods of use as an anti-cancer therapeutic” (ADVANCED CANCER THERAPEUTICS, LLC, priority 2012, dated 2017)", "tested_on": "Jurkat cells", "assay": "Inhibition of 14C-2-deoxyglucose uptake", "assay_type": "cell-based", "settings": "Homo sapiens, Jurkat cells", "description": "Inhibition of PFKFB3 results in inhibiting glycolysis. Several feedback or feedforward activation and inhibition mechanisms exist so that, by a feedback mechanism, inhibiting the activity of PFKFB3 might inhibit glucose uptake by cells. An assay was developed to determine if there was inhibition of glucose uptake following exposure PFK-158. Briefly, Jurkat cells were plated at 10^5 cells/mL in RPMI 1640 supplemented with 10% fetal bovine serum and 50 μg/mL gentamicin sulfate. Cells were immediately treated with vehicle or 0.5 μmol/L of PFK-158 for 3 hours and subsequently placed in glucose-free RPMI 1640 for 30 min. ^14C-2-deoxyglucose (0.25 μCi/mL; Perkin Elmer) was added for an additional 60 min and cells were then washed three times with ice-cold RPMI 1640 containing no glucose. Cell lysates were collected in 500 μL of 0.1% SDS and scintillation counts (counts/min) were measured on 400 μL of lysate. Counts were normalized to protein concentration.", "note": "Like-named read-outs stand apart in the source and are kept apart here."}
{"smiles": "O=C(/C=C/c1ccc2ccc(C(F)(F)F)cc2n1)c1ccncc1", "note": "[PFK-158, (E)-1-(pyridyn-4-yl)-3-(7-(trifluoromethyl)quinolin-2-yl)-prop-2-en-1-one]", "values": [{"measurement": "IC50", "setting": "FIG. 2, 14C-2-deoxyglucose, read-out: IC50, inhibition of glucose uptake", "result": "847 ± 150", "unit": "nM"}, {"measurement": "IC50", "setting": "Table 1, read-out: IC50, Inhibition of 2 deoxyglucose uptake", "result": "800 ± 100", "unit": "nM"}, {"measurement": "IC50", "setting": "Table 6, read-out: IC50 Glucose Uptake", "result": "847 ± 150", "unit": "nM"}]}
